Each structure is given as a SMILES string. Where only a bound is given, the exact number is not on record here.

Assay [1] has as its target Pyruvate kinase PKLR (Homo sapiens, UniProt P30613, R510Q). Put plainly: Activation of PKR R510Q mutant (unknown origin) incubated for 60 mins in presence of ADP, PEP and NADH by Spectraax microplate reader based assay.
Assay [2] deals with Pyruvate kinase PKLR (Homo sapiens, UniProt P30613, R532W). The experiment in a line: Activation of PKR R532W mutant (unknown origin) incubated for 60 mins in presence of ADP, PEP and NADH by Spectraax microplate reader based assay.
Assay [3] concerns the target T1, Pyruvate kinase PKLR (Homo sapiens, UniProt P30613). The experiment in a line: Activation of wild type PKR (unknown origin) incubated for 60 mins in presence of ADP, PEP and NADH by Spectraax microplate reader based assay.
Assay [4] deals with T1, Pyruvate kinase PKLR. The experiment in a line: Activation of wild type PKR (unknown origin) by cell based assay.

Chain of Pyruvate kinase PKLR (Homo sapiens, UniProt P30613, R532W) (P30613 whole entry R532W): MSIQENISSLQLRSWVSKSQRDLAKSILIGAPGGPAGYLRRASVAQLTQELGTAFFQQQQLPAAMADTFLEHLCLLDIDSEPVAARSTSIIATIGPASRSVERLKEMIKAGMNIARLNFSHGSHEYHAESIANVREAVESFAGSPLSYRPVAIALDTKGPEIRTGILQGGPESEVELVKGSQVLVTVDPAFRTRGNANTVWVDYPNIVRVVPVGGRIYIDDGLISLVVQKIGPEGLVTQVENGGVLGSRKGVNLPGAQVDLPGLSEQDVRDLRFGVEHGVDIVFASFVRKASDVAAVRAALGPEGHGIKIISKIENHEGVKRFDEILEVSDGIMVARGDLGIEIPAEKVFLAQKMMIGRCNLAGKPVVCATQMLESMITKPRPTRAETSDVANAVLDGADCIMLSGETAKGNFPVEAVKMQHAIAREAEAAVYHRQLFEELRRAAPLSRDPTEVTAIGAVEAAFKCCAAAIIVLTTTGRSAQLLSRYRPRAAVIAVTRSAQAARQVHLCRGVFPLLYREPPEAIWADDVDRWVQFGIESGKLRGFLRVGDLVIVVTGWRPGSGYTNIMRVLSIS
Chain of Pyruvate kinase PKLR (Homo sapiens, UniProt P30613, R510Q) (P30613 whole entry R510Q): as the sequence (P30613 whole entry R532W) above, with R510Q, W532R counted along it
T1 sequence (P30613 whole entry): as the sequence (P30613 whole entry R532W) above, with W532R counted along it

A word on the AC50: it is the concentration at which the activity in the assay is half-maximal. Consider `Nc1nc2c(S(=O)(=O)Nc3ccc(C(=O)N4CCC(O)(c5ccccc5Cl)CC4)cc3)cc(F)cc2s1`, for which the AC50 at Pyruvate kinase PKLR [1], on Pyruvate kinase PKLR [2], on Pyruvate kinase PKLR [3] and on Pyruvate kinase PKLR [4] was less than 100 nM in each case.

In the case of `CCCCC1(O)CCN(C(=O)c2ccc(NS(=O)(=O)c3cccc4cccnc34)cc2)CC1`, the AC50 at Pyruvate kinase PKLR [1], at Pyruvate kinase PKLR [2], at Pyruvate kinase PKLR [3] and on Pyruvate kinase PKLR [4] was less than 100 nM throughout.

As for `O=C(c1ccc(NS(=O)(=O)c2cccc3cccnc23)cc1F)N1CCC(O)(Cc2ccccc2)CC1`, the AC50 on Pyruvate kinase PKLR [1], at Pyruvate kinase PKLR [2], at Pyruvate kinase PKLR [3] and at Pyruvate kinase PKLR [4] was less than 100 nM in each case.

For `Nc1nc2c(S(=O)(=O)Nc3ccc(C(=O)N4CCC(O)(c5cccc(F)c5F)CC4)cc3)cccc2s1`, the AC50 at Pyruvate kinase PKLR [1], at Pyruvate kinase PKLR [2], on Pyruvate kinase PKLR [3] and on Pyruvate kinase PKLR [4] was less than 100 nM each time.

For the compound `CC(CC1(O)CCN(C(=O)c2ccc(NS(=O)(=O)c3cccc4scnc34)cc2)CC1)C(F)(F)F` (configuration not stated), the AC50 on Pyruvate kinase PKLR [1], on Pyruvate kinase PKLR [2], at Pyruvate kinase PKLR [3] and at Pyruvate kinase PKLR [4] was less than 100 nM throughout.

Regarding `O=C(c1ccc(NS(=O)(=O)c2cccc3cccnc23)cc1)N1CCC(O)(c2ccccc2Cl)CC1`, the half-maximal activity concentration (AC50) at Pyruvate kinase PKLR [1], on Pyruvate kinase PKLR [2], at Pyruvate kinase PKLR [3] and at Pyruvate kinase PKLR [4] was less than 100 nM each time.

Consider `CC(C)(C)CC1(O)CCN(C(=O)c2ccc(NS(=O)(=O)c3cccc4nccnc34)cc2)CC1`, for which the AC50 on Pyruvate kinase PKLR [1], on Pyruvate kinase PKLR [2], on Pyruvate kinase PKLR [3] and at Pyruvate kinase PKLR [4] was less than 100 nM throughout.

As for `O=C(c1ccc(NS(=O)(=O)c2cccc3cccnc23)cc1)N1CCC(O)(Cc2c(F)cccc2F)CC1`, the concentration at half-maximal activity (AC50) at Pyruvate kinase PKLR [1], at Pyruvate kinase PKLR [2], on Pyruvate kinase PKLR [3] and on Pyruvate kinase PKLR [4] was less than 100 nM each time.

Consider `CNc1nc2c(S(=O)(=O)Nc3ccc(C(=O)N4CCC(O)(CC(C)C)CC4)cc3)cccc2s1`, for which the AC50 on Pyruvate kinase PKLR [1], at Pyruvate kinase PKLR [2], at Pyruvate kinase PKLR [3] and on Pyruvate kinase PKLR [4] was less than 100 nM in each case.

As for `Cc1ccccc1CC1(O)CCN(C(=O)c2ccc(NS(=O)(=O)c3cccc4cccnc34)cc2)CC1`, the AC50 at Pyruvate kinase PKLR [1], on Pyruvate kinase PKLR [2], at Pyruvate kinase PKLR [3] and on Pyruvate kinase PKLR [4] was less than 100 nM in each case.

For the compound `O=C(c1ccc(NS(=O)(=O)c2cccc3cccnc23)cc1)N1CCC(O)(c2cccc(F)c2Cl)CC1`, the AC50 at Pyruvate kinase PKLR [1], at Pyruvate kinase PKLR [2], at Pyruvate kinase PKLR [3] and on Pyruvate kinase PKLR [4] was less than 100 nM in each case.

Consider `O=C(c1ccc(NS(=O)(=O)c2cccc3cccnc23)cc1OC(F)F)N1CCC(O)(c2ccccc2Cl)CC1`, for which the AC50 on Pyruvate kinase PKLR [1], at Pyruvate kinase PKLR [2], at Pyruvate kinase PKLR [3] and at Pyruvate kinase PKLR [4] was less than 100 nM in each case.

Take `CNc1nc2c(S(=O)(=O)Nc3ccc(C(=O)N4CCC(O)(CC(C)C)CC4)cc3)cc(Cl)cc2s1`: the AC50 at Pyruvate kinase PKLR [1], at Pyruvate kinase PKLR [2], at Pyruvate kinase PKLR [3] and at Pyruvate kinase PKLR [4] was less than 100 nM in each case.

Regarding `Nc1nc2c(S(=O)(=O)Nc3ccc(C(=O)N4CCC(O)(CCCC(F)(F)F)CC4)cc3)cccc2s1`, the concentration at half-maximal activity (AC50) on Pyruvate kinase PKLR [1], at Pyruvate kinase PKLR [2], at Pyruvate kinase PKLR [3] and at Pyruvate kinase PKLR [4] was less than 100 nM in each case.

Consider `CCc1ccccc1C1(O)CCN(C(=O)c2ccc(NS(=O)(=O)c3cccc4cccnc34)cc2)CC1`, for which the AC50 at Pyruvate kinase PKLR [1], at Pyruvate kinase PKLR [2], on Pyruvate kinase PKLR [3] and on Pyruvate kinase PKLR [4] was less than 100 nM in each case.

As for `O=C(c1ccc(NS(=O)(=O)c2cccc3scnc23)cc1)N1CCC(O)(Cc2ccccc2C(F)(F)F)CC1`, the AC50 at Pyruvate kinase PKLR [1], at Pyruvate kinase PKLR [2], at Pyruvate kinase PKLR [3] and at Pyruvate kinase PKLR [4] was less than 100 nM throughout.

With `COc1ccccc1CC1(O)CCN(C(=O)c2ccc(NS(=O)(=O)c3cccc4cccnc34)cc2)CC1`, the half-maximal activity concentration (AC50) at Pyruvate kinase PKLR [1], on Pyruvate kinase PKLR [2], on Pyruvate kinase PKLR [3] and on Pyruvate kinase PKLR [4] was less than 100 nM in each case.

As to `Nc1nc2c(S(=O)(=O)Nc3ccc(C(=O)N4CCC(O)(c5ccccc5Cl)CC4)cc3)cccc2s1`, the AC50 at Pyruvate kinase PKLR [1], at Pyruvate kinase PKLR [2], at Pyruvate kinase PKLR [3] and on Pyruvate kinase PKLR [4] was less than 100 nM in each case.

As to `CC(C)(C)CC1(O)CCN(C(=O)c2ccc(NS(=O)(=O)c3cccc4cccnc34)cc2)CC1`, the AC50 on Pyruvate kinase PKLR [1], at Pyruvate kinase PKLR [2], on Pyruvate kinase PKLR [3] and at Pyruvate kinase PKLR [4] was less than 100 nM throughout.

As for `CC(CC1(O)CCN(C(=O)c2ccc(NS(=O)(=O)c3cccc4sc(N)nc34)cc2)CC1)C(F)(F)F` (configuration not stated), the AC50 at Pyruvate kinase PKLR [1], on Pyruvate kinase PKLR [2], at Pyruvate kinase PKLR [3] and at Pyruvate kinase PKLR [4] was less than 100 nM in each case.

With `O=C(c1ccc(NS(=O)(=O)c2cccc3c2OCCC3)cc1)N1CCC(O)(c2ccccc2Cl)CC1`, the concentration at half-maximal activity (AC50) at Pyruvate kinase PKLR [1], at Pyruvate kinase PKLR [2], on Pyruvate kinase PKLR [3] and at Pyruvate kinase PKLR [4] was less than 100 nM each time.

For `O=C(c1ccc(NS(=O)(=O)c2c[nH]c3cccnc23)cc1)N1CCC(O)(c2ccccc2Cl)CC1`, the half-maximal activity concentration (AC50) on Pyruvate kinase PKLR [1], on Pyruvate kinase PKLR [2] and on Pyruvate kinase PKLR [3] was more than 10000 nM throughout.

`O=C(c1ccc(NS(=O)(=O)c2cccc3cccnc23)cc1)N1CCC(O)(CC2CCC2)CC1`: the AC50 at Pyruvate kinase PKLR [1], at Pyruvate kinase PKLR [2], on Pyruvate kinase PKLR [3] and on Pyruvate kinase PKLR [4] was less than 100 nM throughout.

For the compound `O=C(c1ccc(NS(=O)(=O)Cc2ccccn2)cc1)N1CCC(O)(c2ccccc2Cl)CC1`, the AC50 at Pyruvate kinase PKLR [1], on Pyruvate kinase PKLR [2] and at Pyruvate kinase PKLR [3] was more than 10000 nM in each case.

For the compound `Cc1cc(C(=O)N2CCC(O)(c3ccccc3Cl)CC2)ccc1NS(=O)(=O)c1cccc2nccnc12`, the AC50 at Pyruvate kinase PKLR [1], on Pyruvate kinase PKLR [2], on Pyruvate kinase PKLR [3] and at Pyruvate kinase PKLR [4] was less than 100 nM each time.

For the compound `O=C(c1ccc(NS(=O)(=O)c2cccc3cccnc23)cc1)N1CCC(O)(c2ccccc2OC(F)(F)F)CC1`, the AC50 at Pyruvate kinase PKLR [1], at Pyruvate kinase PKLR [2] and on Pyruvate kinase PKLR [3] was less than 100 nM each time.

As to `CC(C)CC1(O)CCN(C(=O)c2ccc(NS(=O)(=O)Cc3ccccn3)cc2)CC1`, the AC50 on Pyruvate kinase PKLR [1], at Pyruvate kinase PKLR [2] and on Pyruvate kinase PKLR [3] was more than 10000 nM each time.

Turning to `Cn1ccc(C2(O)CCN(C(=O)c3ccc(NS(=O)(=O)c4cccc5scnc45)cc3)CC2)n1`, the AC50 on Pyruvate kinase PKLR [1], at Pyruvate kinase PKLR [2] and at Pyruvate kinase PKLR [3] was more than 10000 nM throughout.

With `O=C(c1ccc(NS(=O)(=O)c2ccccc2Cl)cc1)N1CCC(O)(Cc2ccccc2)CC1`, the AC50 on Pyruvate kinase PKLR [1], on Pyruvate kinase PKLR [2] and at Pyruvate kinase PKLR [3] was not above 1000 nM each time.

For the compound `COc1cc(NS(=O)(=O)c2cccc3cccnc23)ccc1C(=O)N1CCC(O)(Cc2ccccc2)CC1`, the AC50 at Pyruvate kinase PKLR [1], on Pyruvate kinase PKLR [2] and at Pyruvate kinase PKLR [3] was less than 100 nM in each case.

As to `CC(F)(F)CCC1(O)CCN(C(=O)c2ccc(NS(=O)(=O)c3cc(F)cc4sc(N)nc34)cc2)CC1`, the AC50 on Pyruvate kinase PKLR [1], on Pyruvate kinase PKLR [2] and at Pyruvate kinase PKLR [3] was less than 100 nM each time.

On to `O=C(c1ccc(NS(=O)(=O)c2cccc3nccnc23)cc1)N1CCC(O)(c2ncc(Cl)s2)CC1`, for which the results for the half-maximal activity concentration (AC50) at Pyruvate kinase PKLR [1], at Pyruvate kinase PKLR [2] and on Pyruvate kinase PKLR [3] were not below 1010 nM, not above 1000 nM and not above 1000 nM, respectively.

Regarding `O=C(c1ccc(NS(=O)(=O)c2cccc3[nH]cnc23)cc1)N1CCC(O)(c2ccccc2Cl)CC1`, the AC50 at Pyruvate kinase PKLR [1] is more than 10000 nM; at Pyruvate kinase PKLR [2] it was not below 1010 nM; at Pyruvate kinase PKLR [3] it was not below 1010 nM.

Regarding `CC(C)CC1(O)CCN(C(=O)c2ccc(NS(=O)(=O)c3cccc4c3OCC4)cc2)CC1`, the AC50 on Pyruvate kinase PKLR [1], at Pyruvate kinase PKLR [2] and on Pyruvate kinase PKLR [3] was not below 1010 nM in each case.

With `CCS(=O)(=O)CC1(O)CCN(C(=O)c2ccc(NS(=O)(=O)c3cccc4nccnc34)cc2)CC1`, the figures for the AC50 at Pyruvate kinase PKLR [1], on Pyruvate kinase PKLR [2] and on Pyruvate kinase PKLR [3] were more than 10000 nM, not below 1010 nM and not below 1010 nM, respectively.

Turning to `O=C(c1ccc(NS(=O)(=O)c2cccc3scnc23)cc1)N1CCC(O)(/C=C/CC(F)(F)F)CC1`, the AC50 on Pyruvate kinase PKLR [1], at Pyruvate kinase PKLR [2] and on Pyruvate kinase PKLR [3] was less than 100 nM throughout.

Take `CC1(O)CCC(C2(O)CCN(C(=O)c3ccc(NS(=O)(=O)c4cccc5nccnc45)cc3)CC2)CC1` (configuration not stated): the AC50 at Pyruvate kinase PKLR [1], on Pyruvate kinase PKLR [2] and at Pyruvate kinase PKLR [3] was not above 1000 nM throughout.

Take `CC(C)CC1(O)CCN(C(=O)c2ccc(NS(=O)(=O)c3cccc4[nH]cnc34)cc2)CC1`: the AC50 at Pyruvate kinase PKLR [1], on Pyruvate kinase PKLR [2] and on Pyruvate kinase PKLR [3] was more than 10000 nM throughout.

With `CC(C)CC1(O)CCN(C(=O)c2ccc(NS(=O)(=O)c3cccc4ncc(O)nc34)cc2)CC1`, the AC50 at Pyruvate kinase PKLR [1], on Pyruvate kinase PKLR [2] and at Pyruvate kinase PKLR [3] was more than 10000 nM in each case.

Consider `CC1(O)CCC(C2(O)CCN(C(=O)c3ccc(NS(=O)(=O)c4cccc5scnc45)cc3)CC2)CC1` (configuration not stated), for which the figures for the AC50 at Pyruvate kinase PKLR [1], at Pyruvate kinase PKLR [2] and on Pyruvate kinase PKLR [3] were not below 1010 nM, not below 1010 nM and not above 1000 nM, respectively.

`O=C(c1ccc(NS(=O)(=O)c2cccc3cccnc23)cc1)N1CCC(C(=O)O)(c2ccccc2)CC1`: the concentration at half-maximal activity (AC50) on Pyruvate kinase PKLR [1], at Pyruvate kinase PKLR [2] and on Pyruvate kinase PKLR [3] was more than 10000 nM each time.

Regarding `Nc1nc2c(S(=O)(=O)Nc3ccc(C(=O)N4CCC(O)(/C=C/CC(F)(F)F)CC4)cc3)cccc2s1`, the AC50 on Pyruvate kinase PKLR [1], at Pyruvate kinase PKLR [3] and on Pyruvate kinase PKLR [4] was less than 100 nM each time.

`CNc1nc2c(S(=O)(=O)Nc3ccc(C(=O)N4CCC(O)(c5ccccc5Cl)CC4)cc3)cccc2s1`: the AC50 on Pyruvate kinase PKLR [1], at Pyruvate kinase PKLR [2] and at Pyruvate kinase PKLR [3] was less than 100 nM in each case.
